Results from patent US6593275B1, “Use of prolines for improving growth and other properties of plants and algae” (The Regents of the University of California, priority 2000, dated 2003).
Several values for one entry are separate records, joined by “and”; a condition that tells them apart may be missing. Equal values may be shown once. Marks after values point to notes of the source that are not given here.

Tests used:
[1] = tested on: oat plants; test: Foliar treatment of oats with 5-oxoproline; assay type: in vivo; settings: oats harvested 17 days after single foliar treatment, 40.5 mg per milliliter, 1% dimethylsulfoxide, pH 6.3
Protocol: A solution containing 40.5 mg per milliliter of 2-pyrrolidone-5-carboxylic acid and 1% dimethylsulfoxide in water at a pH of 6.3 was applied, but other solutions of this compound were also found to be effective. These plants were grown under lights of 980 microeinsteins per meter squared per second and the treatment was applied to their foliar parts.

[2] = tested on: glutamine synthetase; test: Glutamine synthetase activity in leaf and root of treated oats (transferase assay); assay type: in vivo; settings: for GS Activity, Leaf: leaf of treated oats, controls 10.5; for GS Activity, Root: root of treated oats, controls 7.8; for Leaf/Root GS Activity Ratio: treated oats, controls 1.35
Protocol: Glutamine synthetase activity was measured using the transferase assay as described in “Glutamine Synthetase (E. coli)” by B. Shapiro and E. Stadtman, Meth. Enzym. 17A, 910 (1970). The GS activity is expressed in micromoles per gram of fresh weight of tissue per minute.
(§1) TABLE 5 and FIG. 3 hereof show the results of increasing the ratio of leaf/root GS activity on plant growth and on the concentration of 2-hydroxy-5-oxoproline in the leaves of oat plants treated with a compound (tabtoxinine-β-lactam) that binds to glutamine synthetase and impairs the normal destruction of this enzyme, thereby causing the leaf GS activity to increase while the root GS activity decreases. (For methodology, see, e.g., T. Knight, D. Bush, and P. Langston-Unkefer, Plant Physiol. 88, 333 (1988)). The compound (Tabtoxinine-β-lactam) was delivered to the roots. […] The level of 2-hydroxy-5-oxoproline was also observed to increase in the leaves of these plants as a consequence of the increased leaf/root GS activity ratio.

[3] = tested on: oat plants; test: Root treatment of oats; effects of increasing leaf/root GS ratio on growth and leaf 2-hydroxy-5-oxoproline; assay type: in vivo; settings: for Whole Plant Fresh Weight (FWT): oats, compound delivered to the roots, controls 14.95; for 2-Hydroxy-5-oxoproline in Leaf: treated oats, controls 4.9
Protocol: (§2) Having generally described the invention, the following EXAMPLES provide additional details of the effects of the metabolite, 2-hydroxy-5-oxoproline and other prolines on plant properties. In the EXAMPLES, the concentration of 2-hydroxy-5-oxoproline in plant leaves was determined by extracting the 2-hydroxy-5-oxoproline into acidified water from a known weight of fresh leaf tissue. The sampled leaves were fully extended and photosynthetically active. The amount of 2-hydroxy-5-oxoproline was measured using a high-performance liquid chromatograph fitted with an optical detector (210 nm) and a column packed with a sulfonated polystyrene di-vinyl benzene polymer suitable for ion-exclusion chromatography of Kreb cycle intermediates. The metabolite was eluted with 0.01N H2SO4 in water. The chromatograph peak corresponding to 2-hydroxy-5-oxoproline was identified by the known column retention time of 2-hydroxy-5-oxoproline. A standard curve was prepared using chemically synthesized 2-hydroxy-5-oxoproline (structure confirmed using 13-C nuclear magnetic resonance) and varying the amount of this standard injected into the system. The area integrated under the peak was correlated with the known amount of standard injected into the chromatograph. The amount of 2-hydroxy-5-oxoproline in leaf tissue samples could then be quantitatively determined from the area under the appropriate peak.
(§3) Also in the EXAMPLES, plants were grown at 73° F. with 16 h length days and 8 h length nights. Fluorescent lights were supplemented with incandescent bulbs to generate intensities of 1760, 980 or 360 microeinsteins per meter squared per second as indicated in the EXAMPLES. Plants were grown in a standard potting mixture of peat moss, vermiculite and perlite, and nutrients were supplied by watering daily with the commonly used Hoagland's plant nutrient solution which contains an array of known plant nutrients and is considered to be appropriate to meet the nutrient needs of plants as they normally receive them from soil.
as §1

[4] = tested on: alfalfa commercial cultivar Saranac; test: Daily root treatment of alfalfa: growth, nodulation and flowering; assay type: in vivo
Protocol: as §3
Growth and nodulation were improved by the treatment. The alfalfa commercial cultivar Saranac, was grown as described hereinabove using 1760 microeinsteins per meter squared per second as the light intensity, and watered daily with quarter-strength Hoagland's plant nutrient solution that had been modified to replace the nitrogen (nitrate) with chloride in the solution. Nodulating alfalfa seedlings were treated beginning at about 4 days of age, with the same quantity of 2-hydroxy-5-oxoproline as described in EXAMPLE 1 for plants receiving the 2-hydroxy-5-oxoproline through their roots.
The time to flowering or emergence of seed structures of treated daily and untreated plants was tracked in alfalfa and oats.

[5] = tested on: Chlorella sorokinian; test: Growth rate of algae with 2-hydroxy-5-oxoproline in growth medium; assay type: cell-based; settings: treated algae, CO2 sole carbon source; untreated approximately 60 h
Protocol: The growth rate of algae, Chlorella sorokinian (obtained from the American Type Culture Collection), was increased when 2-hydroxy-5-oxoproline was added to the growth medium. The mass accumulation growth curve for this single-cell photosynthetic organism is described as a sigmoidal function. […] This reflects substantially accelerated growth for the treated algae cultures when compared with untreated cultures. The growth medium for algae growth is described in Biotechnology & Bioengineering Vol. IV by Daboll et al., pages 281-297 (1962). Carbon dioxide was provided as the sole carbon source and was allowed to sparge into the cultures of both treated and untreated cultures. The light source supplied approximately 980 ft candles. Media pH was initially adjusted to 8.0 using either NaOH or HCl, and subsequently maintained at pH 7.0 by controlling the introduction of CO2.

[6] = tested on: Cotton-Pima; test: Single foliar treatment of cotton seedlings; assay type: in vivo; settings: 16 days old, harvested 9 day after a single treatment, untreated 1.27
Protocol: (§4) TABLE 7 and TABLE 8 show the results when commercial vegetables such as cantaloupe, and tomatoes, and a crop such as cotton were tested for the effects of the metabolite on their growth rates. These plants received one foliar application of 2-hydroxy-5-oxoproline as young seedlings. These plants grew more rapidly as determined by either fresh weight or leaf length. The cantaloupe and cotton seedlings were harvested and their fresh weight was determined.
(§5) *Plants were 16 days old and were harvested 9 day after the treated plants had received a single treatment.

[7] = tested on: oat plants (commercial cultivar Lodi); test: Daily root treatment of oats with 2-hydroxy-5-oxoproline; assay type: in vivo
Protocol: as §2
Also in the EXAMPLES, plants were grown at 73° F. with 16 h length days and 8 h length nights. […]
The treatment was commenced when the seedlings were 7 days old and continued for 56 days; the 2-hydroxy-5-oxoproline was supplied daily to their roots as 50 ml of between 0.5 to 50 μM solutions of 2-hydroxy-5-oxoproline in Hoagland's plant nutrient solution having a pH of 6.3. […] When the amount of dry weight was expressed as a function of fresh weight, the percent dry weight of the treated plants ranged from 8.1 to 8.4% when compared with 7.6% for untreated control plants. […]

[8] = tested on: Cantaloupe-Imperial; test: Single foliar treatment of cantaloupe seedlings; assay type: in vivo; settings: 16 days old, harvested 9 day after a single treatment, untreated 0.85
Protocol: as §4, §5

[9] = tested on: wildtype oats (commercial cultivar Lodi); test: Daily root treatment of oats; selection of responders by CO2 fixation rate and tillers; assay type: in vivo
Protocol: Oats were treated with 2-hydroxy-5-oxoproline through their roots as described in EXAMPLE 1. Individual plants that responded to the increased level of 2-hydroxy-5-oxoproline were identified by measuring the rate of CO2 fixation using a CO2 fixation meter at the maximum light intensity for photosynthetic carbon dioxide fixation of 2000 microeinsteins per meter squared per second. The rates were measured in the leaves of treated plants on two successive days and the plants were allowed to mature and produce seed.

[10] = tested on: Switchgrass (commercial cultivar Alamo); test: Daily root treatment of switchgrass; assay type: in vivo
Protocol: as §3
Average fresh weight of the foliar part of the plants was 115% of that for the control plants.

[11] = tested on: lettuce; test: Weekly foliar treatment of lettuce with 2-hydroxy-5-oxoproline; assay type: in vivo
Protocol: as §2, §3
The fresh weight, dry weight, percent dry weight, 2-hydroxy-5-oxoproline concentration in the leaves, and the CO2 fixation rates are all increased in the treated plants. The greater dry weight percent increases the value of these plants and that of algae as fuel because the increase provides a greater amount of combustible material per gram of fresh weight (that is, a greater amount of carbon was fixed by the plant), and because an increase in dry weight percent reduces the water content in the fuel which is an energy cost when the fuel is combusted. It also increases the value of these plants as sources of biomass suitable for conversion to other products such as chemicals, liquid fuels, or hydrogen, to name a few examples. Treatments were applied weekly to the foliar parts of the plants using an air brush until approximately 20% drip. The aqueous treatment solution contained 2-hydroxy-5-oxoproline (10 mg/liter) in 0.07% sodium laurel sulfate, and 1.2% glycerol at a pH of 6.3. The plants were harvested at 63 days of age after 7 treatments; the harvest was made 7 days after the last treatment. These plants were provided Hoagland's plant nutrient solution to their roots and grown under light intensity of […] microeinsteins.
At harvest (63 days of age) none of the 12 control plants had emerged flowering structures, whereas 6 of the 12 treated plants had well-developed flowering structures.

[12] = tested on: Tomato-Halley 3155; test: Multiple foliar treatment of tomato; assay type: in vivo; settings: 24 days old, 5 weekly treatments, untreated 11.97
Protocol: as §4
** Plants were 24 days old and treated plants had received 5 weekly treatments.

[13] = tested on: thrip; test: Thrip infestation of alfalfa plants with elevated 2-hydroxy-5-oxoproline; assay type: in vivo; settings: of 80 plants, one week after initial exposure; controls 15 of 80
Excerpt: Thrip infestation of plants having increased 2-hydroxy-5-oxoproline concentration was compared with that of control plants having a normal level of 2-hydroxy-5-oxoproline in their leaves. Control (80 plants) and plants with elevated levels of 2-hydroxy-5-oxoproline (80 plants) were subjected to thrip infestation; these two sets of plants were randomly intermingled in the greenhouse to assure equal exposure to the pest. Of the set of control plants, 15 were infested with thrip while only 11 of the other set of plants were infested with thrip one week after initial exposure to the pests. The light intensity for growth was approximately 1760 microeinsteins per meter squared per second.

[14] = alfalfa, daily root treatment (soil), controls 100
[15] = individual treated oat plants, non-responders
[16] = lettuce, harvest at 63 days, control 100%

## O=C1CCC(C(=O)O)N1 (centres unmarked) [5-oxoproline, 2-pyrrolidone-5-carboxylic acid]
[1]
  fresh foliar weight, percent of untreated control plants: 126%

## N[C@@H](CC[C@]1(O)CNC1=O)C(=O)O [Tabtoxinine-β-lactam, tabtoxinine-β-lactam, reference compound]
[2]
  GS Activity, Leaf: Leaf: 25.9 micromoles/g FWT/min
  GS Activity, Root: Root: 3.9 micromoles/g FWT/min
  Leaf/Root GS Activity Ratio: 6.6
[3]
  Whole Plant Fresh Weight (FWT): 24.6 g
  2-Hydroxy-5-oxoproline in Leaf: 16.6 micromoles/g FWT

## O=C1CC[C@@](O)(C(=O)O)N1 [2-hydroxy-5-oxoproline]
[4]; alfalfa treated daily
  flowered sooner than untreated plants: 2 to 5 days
[4]; [14]
  Nodule number/plant (%): 214%
  Nodule weight/plant (%): 165%
  Whole plant Fresh weight (%): 145%
[5]
  time to reach the mid-log phase of growth: approximately 40 h
[6]
  Foliar Fresh Weight, Treated plants: 1.85* g
[7]; oats treated daily
  seed structures displayed earlier than untreated control plants: 3 to 5 days
[7]; oats, daily root treatment, control 4.9
  2-Hydroxy-5-oxoproline Concentration in Leaf: 7.0 micromoles/gFWT
[7]; oats, roots treated daily for 56 days with 50 ml of 0.5 to 50 μM solution, control 14.95
  Whole Plant Fresh Weight (FWT): 18.06 g
[8]
  Foliar Fresh Weight, Treated plants: 1.55* g
[9]; average of non-responders, average of untreated plants 13.7
  Number of Tillers in Mature Plant: 14.0
[9]; average of non-responders, average of untreated plants 18.2
  CO2 fixation Rate as Differential CO2 Concentration: 18.2 ppm
[9]; average of responders, average of untreated plants 13.7
  Number of Tillers in Mature Plant: 17.0
[9]; average of responders, average of untreated plants 18.2
  CO2 fixation Rate as Differential CO2 Concentration: 25.3 ppm
[9]; [15]
  CO2 fixation Rate as Differential CO2 Concentration: 19.9 ppm and 19.6 ppm and 17.2 ppm and 16.1 ppm
  Number of Tillers in Mature Plant: 14 (2×) and 13 and 15
[9]; individual treated oat plants, responders
  Number of Tillers in Mature Plant: 21 (2×) and 19 and 12 and 15 and 17 (3×) and 13 and 18
[9]; individual treated oat plants, responders, light 2000 microeinsteins
  CO2 fixation Rate as Differential CO2 Concentration: 25.2 ppm and 24.5 ppm and 24.2 ppm (2×) and 23.6 ppm and 23.2 ppm and 28.9 ppm and 28.0 ppm and 25.9 ppm and 25.3 ppm
[10]; switchgrass, daily root treatment
  Average fresh weight of the foliar part, percent of control plants: 115%
[10]; treated switchgrass, untreated 14.9%
  dry weight per unit of fresh weight, foliar parts: 16.5%
[10]; treated switchgrass, untreated 16.7%
  dry weight per unit of fresh weight, roots: 12.05%
[10]; treated versus control switchgrass, as a function of time
  emergence of 3rd and 4th leaves (FIG. 4): consistently emerged leaves sooner than did the control plants
[11]; 34 day-old lettuce plants, control 6.6
  CO2 Fixation Rate: 9.0 micromoles CO2 fixed/m^2/sec
[11]; 57 day-old lettuce plants, control 6.9
  CO2 Fixation Rate: 9.6 micromoles CO2 fixed/m^2/sec
[11]; lettuce, 7 weekly foliar treatments 10 mg/liter, harvest at 63 days, control 55.3
  Whole Plant Fresh Weight (FWT): 65.2 g
[11]; lettuce, harvest at 63 days, control 4.00
  Whole Plant Dry Weight (DW): 6.35 g
[11]; [16]
  Whole Plant Dry Weight, percent of control: 159%
  Whole Plant Fresh Weight, percent of control: 118%
[11]; lettuce, weekly foliar treatment, control 6.25
  2-Hydroxy-5-oxoproline Concentration in Leaf: 13.37 micromoles/gFWT
[11]; lettuce, control 100%
  2-Hydroxy-5-oxoproline Concentration in Leaf, percent of control: 212%
[11]; of the 12 treated lettuce plants at harvest (63 days of age), none of 12 controls
  number of plants with well-developed flowering structures: 6
[12]
  Foliar Fresh Weight, Treated plants: 19.08** g
[2]
  GS Activity, Leaf: Leaf: 16.9 micromoles/g FWT/min
  GS Activity, Root: Root: 6.4 micromoles/g FWT/min
  Leaf/Root GS Activity Ratio: 2.64
[3]
  Whole Plant Fresh Weight (FWT): 18.07 g
  2-Hydroxy-5-oxoproline in Leaf: 7.04 micromoles/g FWT
[13]
  number of plants infested with thrip: 11
